A short description of data set [1]: Solid oral delivery of acyclovir in rats (plasma acyclovir by LC-MS-MS). The class given is in vivo, Male Sprague Dawley rats. The following applies: oral tablet, acyclovir 25 mg/kg, no delivery agent. The source says:
An oral dosing tube was used.
Results from the animals in each group were averaged for each time point.

For data set [2] the following is noted: orally administered; cited from earlier work.

As for `Nc1nc2c(ncn2COCCO)c(=O)[nH]1` [Acyclovir, 9-(2-hydroxyethoxymethyl)guanine], the “Mean plasma peak of Acyclovir (ng/ml) ± SD” value in data set [1] was 95.11 ± 73.75 ng/mL. The bioavailability in data set [2] is 15-30%.

Source of the values: US8952017B2 (Emisphere Technologies, Inc., priority 2004, dated 2015).
